# Data as given in article PMC10862539, “Chelation of Mitochondrial Iron as an Antiparasitic Strategy” (ACS Infectious Diseases, 2024).
# Like-named read-outs stand apart in the source and are kept apart here.
# Key:
# Human fibroblast BJ1 = assay: Drug sensitivity assay, human fibroblast BJ1 (CellTiter-Glo); type: cell-based; conditions: for EC50: 48 h
# Method: (§1) All organisms were cultivated according to the conditions summarized in Table S2, which also includes strain specifications. Dose–response curves were obtained by their cultivation on 96 well plates in a 2-fold series dilution of the appropriate drug, in a total volume of 200 μL (with the exception of P. falciparum, where the total volume was 100 μL). Iron supplementation was achieved by mixing the compound with Fe-NTA in an equimolar ratio prior to setting up the experiment. Results were plotted and processed using Prism 8.0 (GraphPad Software). A two-tailed unpaired t-test was performed to assess the significance of the difference between mitoDFO with and without added iron. Selectivity was calculated as the ratio of the average EC50 value for human fibroblasts to the average EC50 value for the appropriate pathogen. All data were obtained from a minimum of three independent biological replicates.
# T. brucei 427 (BSF) = assay: Drug sensitivity assay, T. brucei 427 bloodstream form (resazurine); type: cell-based, Trypanosoma brucei; conditions: for selectivity (for −Fe): EC50 human fibroblasts / EC50 T. brucei 427 (BSF); for EC50: Trypanosoma brucei, 72 h
# Method: as §1
# T. brucei STIB (BSF) = assay: Drug sensitivity assay, T. brucei STIB bloodstream form (resazurine); type: cell-based, Trypanosoma brucei; conditions: for selectivity (for −Fe): EC50 human fibroblasts / EC50 T. brucei STIB (BSF); for EC50: Trypanosoma brucei, 72 h
# Method: as §1
# B. divergens = assay: Drug sensitivity assay, B. divergens in bovine erythrocytes (flow cytometry); type: cell-based, Babesia divergens; conditions: for EC50: Babesia divergens, Erythrocyte, 48 h; for selectivity (for −Fe): EC50 human fibroblasts / EC50 B. divergens
# Method: as §1
# N. fowleri = assay: Drug sensitivity assay, N. fowleri (flow cytometry); type: cell-based; conditions: for selectivity (for −Fe): EC50 human fibroblasts / EC50 N. fowleri; for EC50: Naegleria fowleri, 72 h
# Method: as §1
# iron-containing fumarase = assay: Fumarase activity in cytosolic and mitochondrial fractions of treated T. brucei 427; type: cell-based, Trypanosoma brucei; conditions: 0.12 μM compound, 24 h; for reduction of cytosolic fumarase activity: cytosolic fraction; for reduction of mitochondrial fumarase activity: mitochondrial fraction
# Method: (§2) T. brucei 427 bloodstream forms were preincubated for 24 h in appropriate conditions (0.12 μM mitoDFO, 0.12 μM DFO, and no addition) and harvested, and cytosolic and mitochondrial fractions were separated by digitonin fractionation as described previously.[46] Briefly, cells were spun down (1200 g, 15 min, 4 °C) and resuspended in SHE buffer (250 mM sucrose, 25 mM HEPES, 1 mM EDTA, pH 7.4), and protein concentration was measured using a BCA kit (Sigma-Aldrich). Subsequently, cells were transferred into HBSS (Sigma-Aldrich) and digitonin (Calbiochem) was added in the protein/digitonin ratio of 1/0.15 for 4 min and spun (21 000 g, 2 min, 4 °C). The supernatant was collected and placed on ice as a cytosolic fraction. The remaining pellet was lysed using 0.1% Triton X-100 in HBSS for 5 min, resuspended, washed in HBSS twice, and used as a mitochondrial fraction. The activities of cytosolic pyruvate kinase and mitochondrial threonine dehydrogenase were assessed in all conditions using the spectrophotometric assay at […], as described in ref ([46]), and served both as markers of successful fraction preparation and to assess the effect of the studied compounds. Briefly, pyruvate kinase was measured in TEA buffer (0.1 M triethanolamine, 5 mM MgSO4, 50 mM KCl, pH 7.6) with added 2.8 mM phosphoenolpyruvate, 2 mM ADP, 0.3 mM NADH, and lactate dehydrogenase. Threonine dehydrogenase was measured in 0.2 M Tris–HCl buffer, pH 8.6, 0.25 KCl with 120 mM threonine, and 2.5 mM NAD^+. Fumarase was measured at […] in 2 mM Tris–HCl buffer, pH 7.5, with 20 mM malate.
# [1] = test system: mitochondrial threonine dehydrogenase; assay: Threonine dehydrogenase activity in mitochondrial fraction of treated T. brucei 427; type: cell-based, Trypanosoma brucei; conditions: 0.12 μM compound, 24 h
# Method: as §2, with “The supernatant was collected and placed on ice as a cytosolic fraction. The remaining pellet was lysed using 0.1% Triton X-100 in HBSS for 5 min, resuspended, washed in HBSS twice, and used as a mitochondrial fraction.” left out
# murine macrophage [2] = assay: Murine macrophage axenic monoculture EC50; type: cell-based, mouse; conditions: Mus musculus, Macrophage, read-out: EC50 axenic murine macrophage
# murine macrophage [3] = assay: Intracellular L. mexicana infection assay, macrophage population; type: cell-based, mouse; conditions: Mus musculus, Macrophage, read-out: EC50 infection assay murine macrophage
# Method: (§3) Approximately 10 000 murine macrophages per well were seeded on 96 well plate, and a suspension of 60 000 L. mexicana GFP-expressing promastigotes was added to each well and left to infect the mammal cells for 72 h in a cultivation medium under the conditions described in Table S2. 2-fold dilution series starting with 100 μM of either mitoDFO, DFO, or Amphotericin B in a regular growth medium were added, and cultures were incubated for further 72 h in the same conditions. Macrophage cells were washed and resuspended in growth medium and detached by pipetting, and their concentration in each well was measured on a Guava EasyCyte 8HT flow cytometer (Luminex). The GFP signal of internalized L. mexicana amastigotes in each macrophage was detected using a 488 nm excitation laser and a 525/30 nm detector. Median fluorescence graphs were plotted, and EC50 values for both macrophages and intracellular L. mexicana were calculated using Prism 8.0 (GraphPad Software).
# [4] = test system: intracellular Leishmania mexicana amastigotes; assay: Intracellular L. mexicana infection assay, GFP amastigotes in macrophages; type: cell-based; conditions: for EC50: Leishmania mexicana, Macrophage, read-out: EC50 infection assay Leishmania mexicana
# Method: as §3
# [5] = test system: T. brucei 427 bloodstream form; assay: Reactive oxygen species determination (H2DCFDA, flow cytometry); type: cell-based, Trypanosoma brucei; conditions: twice the EC50 value (0.12 μM), 24 h
# Method: T. brucei 427 bloodstream form’s cellular ROS production was assessed using H2DCFDA (Sigma-Aldrich). Cells were preincubated for 24 h with 0.12 μM mitoDFO, and approximately 1 × 10^6 cells were incubated with 10 μM H2DCFDA for 30 min and washed with PBS with 6 mM glucose, and 10 000 events were measured on a Guava EasyCyte 8HT flow cytometer (Luminex) using a 488 excitation laser and a 525/30 detector. Median fluorescence was plotted against untreated culture using Prism 8.0 (GraphPad Software), and statistical significance was determined using a two-tailed paired t-test. The experiment was performed in three biologically independent replicates.
# [6] = test system: T. brucei 427 bloodstream form; assay: Mitochondrial membrane potential (TMRE, flow cytometry); type: cell-based, Trypanosoma brucei; set-up: dose or concentration left out as unconfirmed; conditions: 0.12, 0.3, and mitoDFO for 24 h
# Method: T. brucei 427 bloodstream form’s mitochondrial membrane potential was assessed using the fluorescent probe TMRE (Thermo Fisher Scientific). […] Approximately 1 × 10^6 cells were incubated with 60 nM TMRE for 30 min and washed with PBS with 6 mM glucose, and 10 000 events were measured on a Guava EasyCyte 8HT flow cytometer (Luminex) using a 488 excitation laser and a 583/26 detector. Median fluorescence was plotted against untreated culture using Prism 8.0 (GraphPad Software), and statistical significance was determined using RM one-way ANOVA with Geisser-Greenhouse correction. The experiment was performed in three biologically independent replicates.
structure (smiles),measurement,setting,value
"CC(=O)N(O)CCCCCNC(=O)CCC(=O)N(O)CCCCCNC(=O)CCC(=O)N(O)CCCCCN [DFO, Deferoxamine, reference compound]",EC50,"Human fibroblast BJ1; iron-free compound, Human fibroblast BJ1, read-out: EC50 –Fe",> 100 µM
same,EC50,"Human fibroblast BJ1; pre-treated with equimolar iron, Human fibroblast BJ1, read-out: EC50 +Fe",> 100 µM
same,selectivity (for −Fe),T. brucei 427 (BSF),>5
same,EC50,"T. brucei 427 (BSF); iron-free compound, T. brucei 427 (BSF), read-out: EC50 –Fe",22 ± 1.2 µM
same,EC50,"T. brucei 427 (BSF); pre-treated with equimolar iron, T. brucei 427 (BSF), read-out: EC50 +Fe",> 50 µM
same,selectivity (for −Fe),T. brucei STIB (BSF),>38
same,EC50,"T. brucei STIB (BSF); iron-free compound, T. brucei STIB (BSF), read-out: EC50 –Fe",2.61 ± 0.753 µM
same,EC50,"T. brucei STIB (BSF); pre-treated with equimolar iron, T. brucei STIB (BSF), read-out: EC50 +Fe",14.5 ± 1.18 µM
same,EC50,"B. divergens; iron-free compound, B. divergens, read-out: EC50 –Fe",10.8 ± 1.3 µM
same,EC50,"B. divergens; pre-treated with equimolar iron, B. divergens, read-out: EC50 +Fe",> 50 µM
same,selectivity (for −Fe),B. divergens,>9
same,selectivity (for −Fe),N. fowleri,>5
same,EC50,"N. fowleri; iron-free compound, N. fowleri, read-out: EC50 –Fe",19.5 ± 5.9 µM
same,EC50,"N. fowleri; pre-treated with equimolar iron, N. fowleri, read-out: EC50 +Fe",> 100 µM
same,reduction of cytosolic fumarase activity,iron-containing fumarase,no significant effect
same,reduction of mitochondrial fumarase activity,iron-containing fumarase,no significant effect
same,threonine dehydrogenase activity,[1],not
same,EC50,murine macrophage [2]; axenic monoculture,> 25 µM
same,EC50,"murine macrophage [3]; infected macrophages, 72 h treatment",45.3 ± 3.09 µM
same,EC50,"[4]; intracellular amastigotes, 72 h treatment",47.1 ± 2.91 µM
CC(=O)N(O)CCCCCNC(=O)CCC(=O)N(O)CCCCCNC(=O)CCC(=O)N(O)CCCCCN(CCCCCCCCCC[P+](c1ccccc1)(c1ccccc1)c1ccccc1)CCCCCCCCCC[P+](c1ccccc1)(c1ccccc1)c1ccccc1 [mitoDFO],EC50,"Human fibroblast BJ1; Homo sapiens, Fibroblast, read-out: EC50 –Fe",8.9 ± 3.2 µM
same,DFO/mitoDFO ratio (−Fe),Human fibroblast BJ1; Human fibroblast BJ1,>11.2
same,mitoDFO EC50 ratio + Fe/–Fe,Human fibroblast BJ1; Human fibroblast BJ1,2.5
same,selectivity (for −Fe),T. brucei 427 (BSF),151
same,DFO/mitoDFO ratio (−Fe),T. brucei 427 (BSF); T. brucei 427 (BSF),372.9
same,mitoDFO EC50 ratio + Fe/–Fe,T. brucei 427 (BSF); T. brucei 427 (BSF),2.1
same,EC50,T. brucei 427 (BSF); read-out: EC50 –Fe,0.059 ± 0.022 µM
same,selectivity (for −Fe),T. brucei STIB (BSF),28
same,DFO/mitoDFO ratio (−Fe),T. brucei STIB (BSF); T. brucei STIB (BSF),8.1
same,EC50,T. brucei STIB (BSF); read-out: EC50 –Fe,0.32 ± 0.067 µM
same,DFO/mitoDFO ratio (−Fe),B. divergens; B. divergens,4.7
same,mitoDFO EC50 ratio + Fe/–Fe,B. divergens; B. divergens,2.5
same,EC50,B. divergens; read-out: EC50 –Fe,2.3 ± 0.8 µM
same,selectivity (for −Fe),B. divergens,4
same,selectivity (for −Fe),N. fowleri,1
same,DFO/mitoDFO ratio (−Fe),N. fowleri; N. fowleri,2.9
same,mitoDFO EC50 ratio + Fe/–Fe,N. fowleri; N. fowleri,3.0
same,EC50,N. fowleri; read-out: EC50 –Fe,6.7 ± 0.7 µM
same,reduction of cytosolic fumarase activity,iron-containing fumarase,approximately 3 fold
same,reduction of mitochondrial fumarase activity,iron-containing fumarase,approximately 3 fold
same,threonine dehydrogenase activity,[1],significantly reduced
same,increase in the presence of ROS compared to the culture without treatment,[5],approximately 3.5 fold
same,mitochondrial membrane potential,[6],rapidly reduced in a dose-dependent manner
same,EC50,murine macrophage [2],6.34 ± 4.45 µM
same,EC50,murine macrophage [3]; 72 h,4.67 ± 1.18 µM
same,"decrease in EC50 concentration, intracellular amastigotes versus axenic parasites",[4],2 fold
same,EC50,[4]; 72 h,0.67 ± 0.24 µM
